This note sets out measurements from BindingDB's records for doi:10.1016/j.bmcl.2004.07.050 (University of Georgia, 2004).

Broadly, the IC50 is the concentration needed to halve the response being measured. A high value points to lower potency.

The structures appear in SMILES notation.

The target of the assay is Integrase (HIV-1). Put plainly: Inhibitory activity against strand transfer in wild-type HIV-1 integrase was determined using 21-mer oligonucleotide substrate.

The molecule `Nc1ncnc2c1ncn2C1CC(OP(=O)(O)OCC2OCC(n3cnc4c(N)ncnc43)C2O)C(COP(=O)(O)O)O1` (configuration not stated) [Phosphoric acid 4-(6-amino-purin-9-yl)-3-hydroxy-tetrahydro-furan-2-ylmethyl ester 5-(6-amino-purin-9-yl)-2-phosphonooxymethyl-tetrahydro-furan-3-yl ester] registered an IC50 of 41 µM.

As for `Nc1ccn(C2COC(COP(=O)(O)OC3CC(n4cnc5c(N)ncnc54)OC3COP(=O)(O)O)C2O)c(=O)n1` (configuration not stated) [[4-(4-amino-2-oxo-1,2-dihydropyrimidin-1-yl)-3-hydroxyoxolan-2-yl]methyl [5-(6-amino-9H-purin-9-yl)-2-[(phosphonatooxy)methyl]oxolan-3-yl] phosphate], inhibition was half-maximal at 65 µM (IC50).
